The source of these data is patent publication US20040037843A1, “Inducing cellular immune responses to prostate cancer antigens using peptide and nucleic acid compositions” (priority 2003, published 2004).

Bounds are passed on as bounds.

What all share (experiment): HLA class I binding assay, purified HLA, inhibition of 125I-labelled probe peptide
The target of one assay is HLA-A*0206 (Homo sapiens, UniProt P04439, D140Y/D185E/D98H/E176V/E277Q/F33Y/G131W/G231S/I119V/I121R/I166T/I218V/L300P/L318F/N151K/N90K/P208A/P217A/Q86G/Q94H/R138H/R169H/T345S). The settings on record: A*[…], A2 supermotif cross-reactive binding data.
A further assay deals with HLA-A*6802 (Homo sapiens, UniProt P04439, A269V/D140Y/D185E/E176V/E277Q/E87N/F33Y/G231S/I121R/I166T/I218V/L180W/L300P/L318F/N151K/P208A/P217A/Q86R/R138H/R169H/S129P/T345S/V36M). The settings on record: A2 supermotif cross-reactive binding data; read-out: A*6802 nM.
Another assay deals with HLA-A*0203 (Homo sapiens, UniProt P04439, A173T/D140Y/D185E/D98H/E277Q/G131W/G231S/I119V/I121R/I166T/I218V/L180W/L300P/L318F/N151K/N90K/P208A/P217A/Q86G/Q94H/R138H/R169H/T345S). The settings on record: A*[…], A2 supermotif cross-reactive binding data.
A further assay concerns the target HLA-A*0201 (Homo sapiens, UniProt P04439, D140Y/D185E/D98H/E176V/E277Q/G131W/G231S/I119V/I121R/I166T/I218V/L300P/L318F/N151K/N90K/P208A/P217A/Q86G/Q94H/R138H/R169H/T345S). Particulars: A*[…], A2 supermotif cross-reactive binding data.
A further assay addresses HLA-A*0202 (Homo sapiens, UniProt P04439, D140Y/D185E/D98H/E176V/E277Q/G131W/G231S/I119L/I121R/I166T/I218V/L180W/L300P/L318F/N151K/N90K/P208A/P217A/Q67R/Q86G/Q94H/R138H/R169H/T345S). Particulars: A2 supermotif cross-reactive binding data.

Take `CC(C)C[C@H](NC(=O)[C@H](C)N)C(=O)N[C@@H](CO)C(=O)N[C@H](C(=O)NCC(=O)N[C@@H](CS)C(=O)N[C@H](C(=O)NCC(=O)N[C@H](C(=O)O)C(C)C)[C@@H](C)O)C(C)C` [Peptide 1418.15]: the IC50 on HLA-A*0206 is 264 nM; at HLA-A*6802, above 10000 nM; on HLA-A*0203, 9.1 nM; at HLA-A*0201, 24 nM; at HLA-A*0202, 17 nM.

For `CSCC[C@H](NC(=O)[C@H](CC(=O)O)NC(=O)[C@H](CC(N)=O)NC(=O)[C@H](CO)NC(=O)[C@H](CC(C)C)NC(=O)[C@H](CC(C)C)NC(=O)[C@@H](N)Cc1c[nH]cn1)C(=O)N[C@@H](CS)C(=O)N[C@H](C(=O)O)C(C)C` [Peptide 1418.20], the IC50 is 176 nM on HLA-A*0206; above 10000 nM on HLA-A*6802; 278 nM at HLA-A*0203; 119 nM on HLA-A*0201; 102 nM at HLA-A*0202.

`CSCC[C@H](NC(=O)[C@H](Cc1ccccc1)NC(=O)[C@H](CCC(=O)O)NC(=O)[C@@H](NC(=O)[C@@H](NC(=O)[C@@H](N)CCCCN)C(C)C)[C@@H](C)O)C(=O)N[C@@H](CC(C)C)C(=O)N[C@@H](CS)C(=O)N[C@H](C(=O)O)C(C)C` [Peptide 1418.21]: the IC50 on HLA-A*0206 was found to be 34 nM; on HLA-A*6802, 6670 nM; at HLA-A*0203 it was 31 nM; at HLA-A*0201, 53 nM; on HLA-A*0202, 27 nM.

Regarding `CC[C@H](C)[C@H](NC(=O)[C@H](CC(=O)O)NC(=O)[C@H](Cc1ccccc1)NC(=O)[C@@H](NC(=O)[C@H](C)N)[C@@H](C)O)C(=O)N[C@@H](CCC(=O)O)C(=O)N[C@@H](CO)C(=O)N[C@@H](CCCCN)C(=O)N[C@H](C(=O)O)C(C)C` [Peptide 1418.30], the IC50 worked out at 82 nM on HLA-A*0206; 258 nM on HLA-A*6802; 44 nM at HLA-A*0203; 238 nM at HLA-A*0201; 27 nM at HLA-A*0202.

For the molecule `CC(C)C[C@H](NC(=O)[C@H](CO)NC(=O)[C@@H](NC(=O)[C@H](CS)NC(=O)[C@H](CCC(N)=O)NC(=O)[C@H](CC(C)C)NC(=O)[C@@H](N)CO)C(C)C)C(=O)N[C@@H](Cc1c[nH]cn1)C(=O)N[C@@H](CC(C)C)C(=O)N[C@H](C(=O)O)C(C)C` [Peptide 1418.52], the IC50 on HLA-A*0206 came out at 5.2 nM; on HLA-A*6802, 205 nM; at HLA-A*0203, 2.8 nM; on HLA-A*0201 it was 13 nM; on HLA-A*0202, 6.3 nM.

As for `CSCC[C@H](NC(=O)[C@H](CC(=O)O)NC(=O)[C@H](CC(N)=O)NC(=O)[C@H](CO)NC(=O)[C@H](CC(C)C)NC(=O)[C@H](CC(C)C)NC(=O)[C@@H](N)Cc1c[nH]cn1)C(=O)N[C@@H](CS)C(=O)N[C@@H](C)C(=O)N[C@@H](CCCNC(=N)N)C(=O)N[C@H](C(=O)O)C(C)C` [Peptide 1418.67], the IC50 worked out at 37 nM at HLA-A*0206; 860 nM at HLA-A*6802; 5.3 nM at HLA-A*0203; 26 nM at HLA-A*0201; 1.3 nM on HLA-A*0202.

As for `CC(C)C[C@H](NC(=O)[C@H](CC(C)C)NC(=O)[C@H](Cc1c[nH]cn1)NC(=O)[C@H](CC(C)C)NC(=O)[C@H](CO)NC(=O)[C@@H](NC(=O)[C@H](CS)NC(=O)[C@H](CCC(N)=O)NC(=O)[C@H](CC(C)C)NC(=O)[C@@H](N)CO)C(C)C)C(=O)O` [Peptide 1419.66], the IC50 turned out to be 446 nM on HLA-A*0206; 5000 nM at HLA-A*6802; 71 nM on HLA-A*0203; 263 nM at HLA-A*0201; 4.9 nM on HLA-A*0202.

In the case of H-SLHLLSNDMCV-OH [Peptide 1418.66], the IC50 at HLA-A*0206 stood at 2310 nM; on HLA-A*6802, 2160 nM; at HLA-A*0203, 10 nM; at HLA-A*0201, 8.6 nM; on HLA-A*0202, 0.8 nM.
